The values below come from patent US9278978B2, “6-Alkynyl Pyridine” (Boehringer Ingelheim International GmbH, priority 2013, dated 2016).

In one test the target is cIAP1 BIR3 (Homo sapiens (Human), UniProt Q13490). The test is described as follows: cIAP1 BIR3 binding assay (DELFIA), BIR3 domain-SMAC peptide interaction.
Settings: not given
The method, then:
XIAP BIR3 and cIAP1 BIR3 Binding Assays (DELFIA)
Peptide […]-Lys(Biotin), representing the N-terminus of mature human SMAC(SMAC peptide), was used as interaction partner in the protein-peptide interaction assay.
BIR3 domains (10 nM) were incubated with SMAC peptide (10 nM) in assay buffer (50 mM Tris, 120 mM NaCl, 0.1% BSA, 1 mM DTT, 0.05% TritonX100) for one hour at room temperature in the presence of inhibitory compounds. The assay mixture was transferred to a strepatvidin coated plate and incubated for one hour at room temperature to allow binding of the biotinylated peptide and associated BIR3 domains to the plate. After several washing steps Eu labeled anti-GST antibody (e.g. Perkin Elmer DELFIA Eu-N1-antiGST AD0250) was added to detect BIR3 domain-SMAC peptide interactions according to Perkin Elmer's instructions. […] Time resolved Europium fluorescence was measured in a Wallac Victor using Standard assay settings.
DELFIA assay results were plotted against compound concentrations and Software GraphPad Prizm was used to calculate half maximal inhibitory concentrations (IC50 values).
The compound `CNC(C)C(=O)Nc1cc(-c2ncnc3ncn(C)c23)cc(C#Cc2ccc3c(C)nccc3c2)n1` (stereo not shown) [Example 6, N-[4-(7-methyl-7H-purin-6-yl)-6-[2-(1-methylisoquinolin-6-yl)ethynyl]pyridin-2-yl]-2-(methylamino)propanamide] came in with an IC50 of 1 nM. On the same count and under the same terms, the figure for `CNC(C)C(=O)Nc1cc(-c2ncnc3ncn(C)c23)cc(C#Cc2ccccc2)n1` (stereo not shown) [Example 7, N-[4-(7-methyl-7H-purin-6-yl)-6-(2-phenylethynyl)pyridin-2-yl]-2-(methylamino)propanamide] is 2 nM.

Consider `CNC(C)C(=O)Nc1cc(-c2ncnc3ncn(C)c23)cc(C#Cc2ccc3c(ccc(=O)n3C)c2)n1` (stereo not shown) [Example 8, N-{6-[2-(1-methyl-2-oxo-1,2-dihydroquinolin-6-yl)ethynyl]-4-(7-methyl-7H-purin-6-yl)pyridin-2-yl}-2-(methylamino)propanamide], for which the IC50 was determined as 1 nM. As for `CNC(C)C(=O)Nc1cc(-c2ncnc3ncn(C)c23)cc(C#Cc2ccc(-n3cnc(C)c3)cc2)n1` (stereo not shown) [Example 9, N-(6-{2-[4-(4-methyl-1H-imidazol-1-yl)phenyl]ethynyl}-4-(7-methyl-7H-purin-6-yl)pyridin-2-yl)-2-(methylamino)propanamide], the half-maximal inhibitory concentration (IC50) was found to be 2 nM.

The same test, now with this note: BIR3 domain 10 nM, SMAC peptide 10 nM; (S)-isomer (examples 1-34, 38-43) or racemate (examples 35-37); read-out: cIAP1 BIR-3 IC50.
`CNC(C)C(=O)Nc1cc(-c2ccncc2)c(-c2cncnc2)c(C#Cc2ccccc2)n1` (racemic) [Example 35, 2-(methylamino)-N-[6-(2-phenylethynyl)-4-(pyridin-4-yl)-5-(pyrimidin-5-yl)pyridin-2-yl]propanamide]: the IC50 came to 250 nM. The same measure, in the same setting: the figure for `CNC(C)C(=O)Nc1cc(-c2cccnc2)c(-c2cncnc2)c(C#Cc2ccccc2)n1` (racemic) [Example 36, 2-(methylamino)-N-[6-(2-phenylethynyl)-4-(pyridin-3-yl)-5-(pyrimidin-5-yl)-pyridin-2-yl]propanamide] is 172 nM. On the same count and under the same terms, then `CCNC(CC)C(=O)Nc1cc(-c2ncnc3c(C)nn(C)c23)cc(C#Cc2ccc3c(C)nccc3c2)n1` (racemic) [Example 37, N-(4-{1,3-dimethyl-1H-pyrazolo[4,3-d]pyrimidin-7-yl}-6-[2-(1-methylisoquinolin-6-yl)ethynyl]pyridin-2-yl)-2-(ethylamino)butanamide], with 6 nM. Regarding `CNC(C)C(=O)Nc1cc(-c2ncnc3c(C)nn(C)c23)cc(C#Cc2ccc3c(cnn3C)c2)n1` (stereo not shown) [Example 1, N-(4-{1,3-dimethyl-1H-pyrazolo[4,3-d]pyrimidin-7-yl}-6-[2-(1-methyl-1H-indazol-5-yl)ethynyl]pyridin-2-yl)-2-(methylamino)propanamide], the IC50 is 1 nM. With `CNC(C)C(=O)Nc1cc(-c2ncnc3c(C)nn(C)c23)cc(C#Cc2ccc3c(C)nccc3c2)n1` (stereo not shown) [Example 2, N-(4-{1,3-dimethyl-1H-pyrazolo[4,3-d]pyrimidin-7-yl}-6-[2-(1-methylisoquinolin-6-yl)ethynyl]pyridin-2-yl)-2-(methylamino)propanamide], the IC50 was found to be 1 nM. Take `CNC(C)C(=O)Nc1cc(-c2ncnc3c(C)nn(C)c23)cc(C#Cc2cc(C)nc3c(F)cccc23)n1` (stereo not shown) [Example 3, N-(4-{1,3-dimethyl-1H-pyrazolo[4,3-d]pyrimidin-7-yl}-6-[2-(8-fluoro-2-methylquinolin-4-yl)ethynyl]pyridin-2-yl)-2-(methylamino)propanamide]: the half-maximal inhibitory concentration (IC50) is 1 nM. Turning to `CNC(C)C(=O)Nc1cc(-c2ncnc3c(C)nn(C)c23)cc(C#Cc2ccn3c(C)ncc3c2)n1` (stereo not shown) [Example 4, N-(4-{1,3-dimethyl-1H-pyrazolo[4,3-d]pyrimidin-7-yl}-6-(2-{3-methylimidazo[1,5-a]pyridin-7-yl}ethynyl)pyridin-2-yl)-2-(methylamino)propanamide], the half-inhibitory concentration (IC50) was 1 nM. Take `CNC(C)C(=O)Nc1cc(-c2c(OC)ccc3nc(C)ccc23)cc(C#Cc2ccccc2)n1` (stereo not shown) [Example 5, N-[4-(6-methoxy-2-methylquinolin-5-yl)-6-(2-phenylethynyl)pyridin-2-yl]-2-(methylamino)propanamide]: the half-inhibitory concentration (IC50) was determined as 59 nM.

Consider `CNC(C)C(=O)Nc1cc(-c2ncnc3oc(C)c(C)c23)cc(C#Cc2ccccc2)n1` (stereo not shown) [Example 10, N-(4-{5,6-dimethylfuro[2,3-d]pyrimidin-4-yl}-6-(2-phenylethynyl)pyridin-2-yl)-2-(methylamino)propanamide], for which the IC50 worked out at 2 nM. The same measure, in the same setting: then `CNC(C)C(=O)Nc1cc(-c2cccc3nc(C)c(C)n23)cc(C#Cc2ccc3c(C)nccc3c2)n1` (stereo not shown) [Example 11, N-(4-{2,3-dimethylimidazo[1,2-a]pyridin-5-yl}-6-[2-(1-methylisoquinolin-6-yl)ethynyl]pyridin-2-yl)-2-(methylamino)propanamide], with 1 nM; and `CNC(C)C(=O)Nc1cc(-c2cccc3cnn(C)c23)cc(C#Cc2ccc3c(c2)CC(=O)N3C)n1` (stereo not shown) [Example 12, N-[4-(1-methyl-1H-indazol-7-yl)-6-[2-(1-methyl-2-oxo-2,3-dihydro-1H-indol-5-yl)ethynyl]pyridin-2-yl]-2-(methylamino)propanamide], with 11 nM; and `CNC(C)C(=O)Nc1cc(-c2cnc3cccc(C)n23)cc(C#Cc2ccc3c(C)nccc3c2)n1` (stereo not shown) [Example 13, 2-(methylamino)-N-(4-{5-methylimidazo[1,2-a]pyridin-3-yl}-6-[2-(1-methylisoquinolin-6-yl)ethynyl]pyridin-2-yl)propanamide], with 1 nM.

Regarding `CNC(C)C(=O)Nc1cc(-c2c(C)nc(C)c3c(=O)n(C)n(C)c23)cc(C#Cc2ccc3c(C)nccc3c2)n1` (stereo not shown) [Example 14, 2-(methylamino)-N-{6-[2-(1-methylisoquinolin-6-yl)ethynyl]-4-{1,2,4,6-tetramethyl-3-oxo-1H,2H,3H-pyrazolo[4,3-c]pyridin-7-yl}pyridin-2-yl}propanamide], the IC50 came out at 1 nM. Consider `CNC(C)C(=O)Nc1cc(-c2nc(C)nc3c(C)nn(C)c23)cc(C#Cc2ccc3c(ccc(=O)n3C)c2)n1` (stereo not shown) [Example 15, N-{6-[2-(1-methyl-2-oxo-1,2-dihydroquinolin-6-yl)ethynyl]-4-{trimethyl-1H-pyrazolo[4,3-d]pyrimidin-7-yl}pyridin-2-yl}-2-(methylamino)propanamide], for which the IC50 came out at 1 nM.

Take `CNC(C)C(=O)Nc1cc(-c2nc(C)nc3nn(C)c(C)c23)cc(C#Cc2ccc3c(C)nccc3c2)n1` (stereo not shown) [Example 18, 2-(methylamino)-N-{6-[2-(1-methylisoquinolin-6-yl)ethynyl]-4-{trimethyl-2H-pyrazolo[3,4-d]pyrimidin-4-yl}pyridin-2-yl}-propanamide]: the IC50 was 1 nM.

Regarding `CNC(C)C(=O)Nc1cc(-c2nc(C)nc3nn(C)c(C)c23)cc(C#Cc2ccc3c(ccc(=O)n3C)c2)n1` (stereo not shown) [Example 19, N-{6-[2-(1-methyl-2-oxo-1,2-dihydroquinolin-6-yl)ethynyl]-4-{trimethyl-2H-pyrazolo[3,4-d]pyrimidin-4-yl}pyridin-2-yl}-2-(methylamino)propanamide], the IC50 was 2 nM.

Regarding `CNC(C)C(=O)Nc1cc(-c2nc(C)nc3nn(C)c(C)c23)cc(C#Cc2ccc3c(cnn3C)c2)n1` (stereo not shown) [Example 20, N-{6-[2-(1-methyl-1H-indazol-5-yl)ethynyl]-4-{trimethyl-2H-pyrazolo[3,4-d]pyrimidin-4-yl}pyridin-2-yl}-2-(methylamino)-propanamide], the IC50 was 1 nM.

With `CNC(C)C(=O)Nc1cc(-c2nc(C)nc3nn(C)c(C)c23)cc(C#Cc2cnc(-n3cnc(C)c3)nc2)n1` (stereo not shown) [Example 21, N-(6-{2-[2-(4-methyl-1H-imidazol-1-yl)pyrimidin-5-yl]ethynyl}-4-{trimethyl-2H-pyrazolo[3,4-d]pyrimidin-4-yl}pyridin-2-yl)-2-(methyl-amino)propanamide], the IC50 was 1 nM.

On to `CNC(C)C(=O)Nc1cc(-c2nc(C)nc3nn(C)c(C)c23)cc(C#Cc2cccs2)n1` (stereo not shown) [Example 22, 2-(methylamino)-N-{6-[2-(thiophen-2-yl)ethynyl]-4-{trimethyl-2H-pyrazolo[3,4-d]pyrimidin-4-yl}pyridin-2-yl}propanamide], for which the IC50 amounted to 1 nM. On the same count and under the same terms, then `CNC(C)C(=O)Nc1cc(-c2cccc3cnn(C)c23)c(Cl)c(C#Cc2ccc3c(C)nccc3c2)n1` (stereo not shown) [Example 24, N-[5-chloro-4-(1-methyl-1H-indazol-7-yl)-6-[2-(1-methylisoquinolin-6-yl)ethynyl]pyridin-2-yl]-2-(methylamino)propanamide], with 12 nM; and `CNC(C)C(=O)Nc1cc(-c2cccc3cnn(C)c23)c(OC)c(C#Cc2ccccc2)n1` (stereo not shown) [Example 26, N-[5-methoxy-4-(1-methyl-1H-indazol-7-yl)-6-(2-phenylethynyl)pyridin-2-yl]-2-(methylamino)propanamide], with 12 nM. Still for that read-out and setting: the figure for `CNC(C)C(=O)Nc1cc(-c2cccc3ncccc23)c(OC)c(C#Cc2ccccc2)n1` (stereo not shown) [Example 27, N-[5-methoxy-6-(2-phenylethynyl)-4-(quinolin-5-yl)pyridin-2-yl]-2-(methyl-amino)propanamide] is 136 nM. For the compound `CNC(C)C(=O)Nc1cc(-c2ccncc2)cc(C#Cc2ccccc2)n1` (stereo not shown) [Example 28, 2-(methylamino)-N-[6-(2-phenylethynyl)-4-(pyridin-4-yl)pyridin-2-yl]propanamide], the IC50 was determined as 282 nM.

With `CNC(C)C(=O)Nc1cc(-c2cncc(F)c2)cc(C#Cc2ccccc2)n1` (stereo not shown) [Example 29, N-[4-(5-fluoropyridin-3-yl)-6-(2-phenylethynyl)pyridin-2-yl]-2-(methylamino)propanamide], the IC50 stood at 127 nM.

Usually IC50 stands for the point on the concentration scale where inhibition reaches its midpoint.
